Reference: US20220110902A1, “Methods of treating amyloid-beta peptide diseases” (Ecole Polytechnique Federale de Lausanne, priority 2016, published 2022)
“Also recorded” adds a separate entry of the source.

Assays:
[1] = system: SH-SY5Y neuroblastoma cell line expressing the APP Swedish K670N/M671L double mutation (APPSwe); experiment: Immunostaining of intracellular Aβ deposits in APPSwe SH-SY5Y cells; format: cell-based, human
Protocol: The SH-SY5Y neuroblastoma cell line expressing the APP Swedish K670N/M671L double mutation (APPSwe) was a kind gift of Prof. Cedazo-Minguez (Karolinska Institute, Sweden). Cells were grown in DMEM/F-12, supplemented with 10% fetal bovine serum (FBS, Gibco), GlutaMAX (100×, Gibco) and penicillin/streptomycin (1×, Gibco). Cells were selected in 4 μg/mL Geneticin® Selective Antibiotic (G418 Sulfate, Sigma) and grown for three generations before experiments with cells plated and passaged at 4×10^3 cells/ml and 60% confluence, respectively. Cells were cultured at 37° C. under a 5% CO2 atmosphere and tested for mycoplasma using Mycoprobe (#CUL001B, R&D systems) following the manufacturer's instructions. Cells were treated with 10 μg/mL dox, NR 1 or 3 mM, ISRIB 0.5 μM (Sigma), as indicated for 24 hours before cell harvesting or fixation. For the immunostaining, cells were fixed with 1× Formal-Fixx (Thermo Scientific) for 15 min. After 15 min permeabilization with 0.1% Triton X-100, cells were blocked in PBS supplemented with 5% fetal bovine serum for 1 hour and immunostained overnight, at 4° C., with the anti-β-Amyloid 1-42 (1:100, Millipore AB5078P). The secondary antibody was coupled to the Alexa-488 fluorochrome (Thermo Scientific), and nuclei were stained with DAPI (Invitrogen, D1306). After washing in PBS, cell slides were mounted with Dako mounting medium (Dako, S3023) and examined with a Zeiss LSM 700 confocal microscope (Carl Zeiss MicroImaging) equipped with a Plan-Apochromat 40×/1.3 NA oil immersion objective lens using a 488 nm laser. Laser power was set at the lowest intensity allowing clear visualization of the signal. Imaging settings were maintained with the same parameters for comparison between different experimental conditions.
The SH-SY5Y neuroblastoma cell line expresses the APP Swedish K670N/M671L double mutation (APPSwe) (Zheng et al., 2011) and accumulates intracellular Aβ amyloid aggregates. Cells were grown in DMEM/F-12, supplemented with 10% fetal bovine serum (FBS, Gibco), GlutaMAX (100×, Gibco) and penicillin/streptomycin (1×, Gibco). Cells were selected in 4 μg/mL Geneticin® Selective Antibiotic (G418 Sulfate, Sigma) and grown for three generations before experiments with cells plated and passaged at 4×10{right arrow over ( )}3 cells/ml and 60% confluence, respectively. Cells were cultured at 37° C. under a 5% CO2 atmosphere and tested for mycoplasma using Mycoprobe (#CUL001B, R&D systems), following the manufacturer's instructions. Myriocin was dissolved in DMSO.
Cells were treated with 10 uM Myriocin and Fumonisin B1 for 24 hours before harvesting or fixation (FIG. 3A). For immunostaining, cells were fixed with 1× Formal-Fixx (Thermo Scientific) for 15 min. […]

SH-SY5Y(APPSwe) cells = experiment: Western-blot and transcript analysis in SH-SY5Y(APPSwe) cells; format: cell-based, human; settings: ISRIB 0.5 μM with dox 10 μg/mL, 24 h
Protocol: Human: Total RNA was extracted using guanidine-isothiocyanate lysis (PureLink, Ambion, Waltham, Mass.) from cortex samples, and RNA integrity and concentration was verified using Bioanalysis (Agilent, Santa Clara, Calif.). Samples were randomized based on diagnostic group and assayed in triplicate on a real-time PCR cycler (ABI 7500, Applied Biosystems, Foster City) in 96-well optical plates. qPCR was performed using Taqman hydrolysis probe primer sets (Applied Biosystems) specific for the following human transcripts: HSPA9, HSPD1, YMEIL1, DNM1L, BECN1, SQSTM1, PARK2, COX5A, CYC1. A primer set specific for human GAPDH was used as a control housekeeping transcript. For the APPSwe-expressing SH-SY5Y cell line, total RNA was extracted […] using TriPure RNA isolation reagent, and expression of selected transcripts was analyzed using the LightCycler480 system (Roche) and LightCycler® 480 SYBR Green I Master reagent (Roche). The GAPDH gene was used as housekeeping reference. The ddCT method was employed to determine relative levels of each amplicon. […] The SH-SY5Y neuroblastoma cell line expressing the APP Swedish K670N/M671L double mutation (APPSwe) was a kind gift of Prof. Cedazo-Minguez (Karolinska Institute, Sweden). Cells were grown in DMEM/F-12, supplemented with 10% fetal bovine serum (FBS, Gibco), GlutaMAX (100×, Gibco) and penicillin/streptomycin (1×, Gibco). Cells were selected in 4 μg/mL Geneticin® Selective Antibiotic (G418 Sulfate, Sigma) and grown for three generations before experiments with cells plated and passaged at 4×10^3 cells/ml and 60% confluence, respectively. Cells were cultured at 37° C. under a 5% CO2 atmosphere and tested for mycoplasma using Mycoprobe (#CUL001B, R&D systems) following the manufacturer's instructions. Cells were treated with 10 μg/mL dox, NR 1 or 3 mM, ISRIB 0.5 μM (Sigma), as indicated for 24 hours before cell harvesting or fixation. For the immunostaining, cells were fixed with 1× Formal-Fixx (Thermo Scientific) for 15 min. […]

GMC101 worms [2] = experiment: Western-blot of amyloid aggregation in GMC101 worms; format: in vivo, C. elegans; settings: GMC101, 24 h after shift to 25° C.; UA 20 uM and 50 uM
Protocol: C. elegans: Worms were lysed by sonication with RIPA buffer containing protease and phosphatase inhibitors (Roche), and analyzed by SDS-PAGE and western blot. The concentration of extracted protein was determined by using the Bio-Rad Protein Assay. Proteins were detected using the following antibodies: anti-β-actin (Sigma), anti-tubulin (Santa Cruz), atp-5, ucr-1 (Oxphos cocktail, Abcam), anti-β-Amyloid, 1-16 (6E10) (BioLegend). In addition to the housekeeping proteins, loading was monitored by Ponceau Red to ensure a homogeneous loading. Pixel intensity was quantified by using ImageJ software. Each immunoblot experiment was repeated at least twice using 3 biological replicates each containing approximately 1000 worms.
(§1) During the assays, animals were exposed to Myriocin (dissolved in DMSO) from the egg stage on plates seeded with live HT115 E. coli bacteria. Control plates seeded with the same bacteria were prepared with the corresponding concentrations of DMSO. The day of the experiment (day 1 of adulthood, 3 days after hatching), the GMC101 population was shifted to 25° C. in order to induce the amyloid deposition in the body wall muscle. ˜1000 worms were used for western blotting assays.
(§2) Worms were lysed by sonication with RIPA buffer containing protease and phosphatase inhibitors (Roche), and analyzed by western blot. The concentration of extracted protein was determined by the Bio-Rad Protein Assay. Proteins were detected using the following antibodies: anti-β-actin (Sigma) and anti-β-Amyloid (BioLegend). In addition to the housekeeping proteins, loading was monitored by Ponceau Red to ensure a homogeneous loading. The immunoblot experiment employed 3 biological replicates, each containing approximately 1000 worms.
as §2, with “extracted proteins” for “extracted protein”, “3 biologicals” for “3 biological”
The GMC101 worms were recovered 24 h after being shifted at 25° C. The population was treated with UA at two different concentrations, ie 20 uM and 50 uM.

C. elegans = settings: cited from earlier work
GMC101 worms [3] = experiment: Worm phenotypic assays in GMC101: mobility, paralysis and death score; format: in vivo, C. elegans; settings: GMC101, period of 4 days; UA 20 uM and 50 uM
Protocol: Doxycycline was obtained from Sigma-Aldrich and dissolved in water. For experiments, a final concentration of 15 μg/mL was used. Olaparib (AZD2281) was dissolved in DMSO to experimental concentrations of 300 nM. Nicotinamide Riboside triflate (NR) was custom synthesized by Novalix (www.novalix-pharma.com/) and dissolved in water, and used at a final concentration of 1 mM. Compounds were added just before pouring the plates. For phenotyping experiments, parental F0 L4 worms were allowed to reach adulthood and lay eggs on the treatment plates. The deriving F1 worms were therefore exposed to compounds during the full life from eggs until death. For RNA analysis experiments, synchronized L1 worms were exposed to the compounds until harvest. To ensure a permanent exposure to the compound, plates were changed twice a week.
Mobility: C. elegans movement analysis was performed as described, starting from day 1 of adulthood, using the Movement Tracker software. The experiments were repeated at least twice.
Paralysis and death score: 5 L4 worms per condition were allowed to reach adulthood and lay eggs on the treatment plates. 45 to 60 deriving F1 worms per condition were manually scored for paralysis after poking, as already described. Worms that were unable to respond to any, repeated stimulation, were scored as dead. Results are representative of the data obtained in at least three independent experiments.
as §1
C. elegans movement analysis was performed as described (Mouchiroud et al., 2016), using the Movement Tracker software. ˜50 adult worms were used per condition for movement assays.
To score for paralysis and death, 50 worms per condition were manually scored after poking as described (McCool et al., 2012; Florez-McClure et al., 2007). Worms that were unable to respond to repeated stimulation were scored as dead.
as §1, with “the compound UA” for “Myriocin (dissolved in DMSO)”, “from” for “from the”, “DMSO (0.1%).” for “DMSO.”, “˜50 adult” for “˜1000”, “per conditions.” for “for western blotting assays.”
C. elegans movement analysis was performed as described in (Mouchiroud et al., 2016), using the Movement Tracker software within a period of 4 days.

[4] = system: mouse models of age-related decline of muscle function; settings: mouse models of age-related decline of muscle function, and young rats; cited from earlier work
GMC101 worms [5] = experiment: Development and growth of GMC101 worms; format: in vivo, C. elegans; settings: GMC101, eggs to day 1 of adulthood; dox 15 μg/mL
Protocol: Development: 50 adult worms per condition were transferred on NGM agar plates (10 worms per plate) and allowed to lay eggs for 3 h. Then they were removed and the number of eggs per plate was counted. 72 h later, the number of L1-L3 larvae, L4 and adult worms was counted. The experiment was done twice with five individual plates.

With CCCC[C@H](C)[C@@H](OC(=O)C[C@H](CC(=O)O)C(=O)O)[C@@H](C[C@H](C)C[C@@H](O)CCCC[C@@H](O)C[C@H](O)[C@H](C)N)OC(=O)C[C@H](CC(=O)O)C(=O)O [Fumonisin B1, (2S,2'S)-2,2′-{[(5S,6R,7R,9R,11S,16R,18S,19S)-19-Amino-11,16,18-trihydroxy-5,9-dimethylicosane-6,7-diyl]bis[oxy(2-oxoethane-2,1-diyl)]}disuccinic acid] the “intracellular Aβ deposits” value ([1]; 10 uM, 24 hours) was “significantly reduced; also recorded: markedly reduced”.
For O=C(COc1ccc(Cl)cc1)NC1CCC(NC(=O)COc2ccc(Cl)cc2)CC1 (centres unmarked) [ISRIB, reference compound], the “dox-mediated induction of ATF4 target genes CHOP and CHAC1” value (SH-SY5Y(APPSwe) cells) was “hampered the dox-mediated induction” and the “amyloid clearance by dox after ISRIB pretreatment” value ([1]; ISRIB 0.5 μM with dox 10 μg/mL, 24 h) was “prevented amyloid clearance by dox”.
For O=c1oc2cc(O)ccc2c2ccc(O)cc12 [UA, 3,8-Dihydroxyurolithin], the “accumulation of amyloid-β aggregates” value (GMC101 worms [2]) is listed as “dose-dependently reduced; also recorded: dose-dependent reduction”, the mitochondrial respiratory capacity (C. elegans; C. elegans during aging) is listed as “maintaining mitochondrial respiratory capacity” and the “accumulation of dysfunctional mitochondria with age” value (C. elegans; C. elegans) is listed as “prevent the accumulation of dysfunctional mitochondria with age”. For the same compound, the “activity during aging (mobility and pharyngeal pumping)” value (C. elegans; C. elegans) was “maintained normal activity during aging”, the lifespan (C. elegans; C. elegans) was “extended lifespan” and the “spontaneous movement (mobility)” value (GMC101 worms [3]) was “dose-dependently increased; also recorded: dose-dependent increase”. The exercise capacity [4] was “significantly improved exercise capacity”.
In the case of C[C@H]1c2cccc(O)c2C(=O)C2=C(O)[C@]3(O)C(=O)C(C(N)=O)=C(O)[C@@H](N(C)C)[C@@H]3[C@@H](O)[C@@H]21 [dox, doxycycline], the “development and growth delay” value (GMC101 worms [5]) is reported as “without causing major development and growth delays”.
